Assay [1] addresses Muscarinic acetylcholine receptor M4 (Homo sapiens) (UniProt P08173). In words: Selectivity interaction (GPCR panel (PDSP screen)) EUB0001079a CHRM4. The note with it: at 10 µM.
Assay [2] addresses STE20-like serine/threonine-protein kinase (Homo sapiens, UniProt Q9H2G2). In words: Selectivity interaction (KinomeScan (DiscoverX)) EUB0001049a SLK. Conditions: at 1 µM.
The target of assay [3] is T1, Testis-specific serine/threonine-protein kinase 1 (Homo sapiens) (UniProt Q9BXA7).
T1 sequence (whole entry): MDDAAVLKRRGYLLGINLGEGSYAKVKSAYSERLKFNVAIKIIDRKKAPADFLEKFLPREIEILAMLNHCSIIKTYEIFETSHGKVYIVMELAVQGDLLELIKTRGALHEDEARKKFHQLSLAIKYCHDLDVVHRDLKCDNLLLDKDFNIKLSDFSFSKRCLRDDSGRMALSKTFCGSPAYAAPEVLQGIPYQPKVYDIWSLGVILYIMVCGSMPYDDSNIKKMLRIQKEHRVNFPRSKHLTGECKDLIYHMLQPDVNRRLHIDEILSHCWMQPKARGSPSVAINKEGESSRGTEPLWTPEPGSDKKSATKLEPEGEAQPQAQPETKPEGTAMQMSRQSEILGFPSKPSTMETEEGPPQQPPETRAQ
The assay can be described thus: Selectivity interaction (KinomeScan (DiscoverX)) EUB0000655a TSSK1A. The note with it: at 10 µM.

Assay [4] has as its target Proto-oncogene tyrosine-protein kinase Src (Homo sapiens, UniProt P12931). The assay can be described thus: Selectivity interaction (KinomeScan (DiscoverX)) EUB0000695a SRC. The note with it: at 100 nM.
Assay [5] has as its target Mitogen-activated protein kinase kinase kinase 11 (Homo sapiens) (UniProt Q16584). The assay can be described thus: Selectivity interaction (ActivX KiNativ screen (kinase selectivity in THP-1 cell lysates)) EUB0000639a MAP3K11. The format is subcellular. The note with it: lysate, at 0.2 µM.
Assay [6] concerns the target Mitogen-activated protein kinase kinase kinase 21 (Homo sapiens) (UniProt Q5TCX8). In words: Selectivity interaction (ActivX KiNativ screen (kinase selectivity in THP-1 cell lysates)) EUB0000639a MAP3K21. In kind it is subcellular. Conditions: lysate.
In assay [7] the target is Mitogen-activated protein kinase kinase kinase 9 (Homo sapiens) (UniProt P80192). The assay can be described thus: Selectivity interaction (KinomeScan (DiscoverX)) EUB0000229b MAP3K9. Conditions: at 10 µM.
Chain of Mitogen-activated protein kinase kinase kinase 9 (Homo sapiens) (P80192 whole entry, looked up): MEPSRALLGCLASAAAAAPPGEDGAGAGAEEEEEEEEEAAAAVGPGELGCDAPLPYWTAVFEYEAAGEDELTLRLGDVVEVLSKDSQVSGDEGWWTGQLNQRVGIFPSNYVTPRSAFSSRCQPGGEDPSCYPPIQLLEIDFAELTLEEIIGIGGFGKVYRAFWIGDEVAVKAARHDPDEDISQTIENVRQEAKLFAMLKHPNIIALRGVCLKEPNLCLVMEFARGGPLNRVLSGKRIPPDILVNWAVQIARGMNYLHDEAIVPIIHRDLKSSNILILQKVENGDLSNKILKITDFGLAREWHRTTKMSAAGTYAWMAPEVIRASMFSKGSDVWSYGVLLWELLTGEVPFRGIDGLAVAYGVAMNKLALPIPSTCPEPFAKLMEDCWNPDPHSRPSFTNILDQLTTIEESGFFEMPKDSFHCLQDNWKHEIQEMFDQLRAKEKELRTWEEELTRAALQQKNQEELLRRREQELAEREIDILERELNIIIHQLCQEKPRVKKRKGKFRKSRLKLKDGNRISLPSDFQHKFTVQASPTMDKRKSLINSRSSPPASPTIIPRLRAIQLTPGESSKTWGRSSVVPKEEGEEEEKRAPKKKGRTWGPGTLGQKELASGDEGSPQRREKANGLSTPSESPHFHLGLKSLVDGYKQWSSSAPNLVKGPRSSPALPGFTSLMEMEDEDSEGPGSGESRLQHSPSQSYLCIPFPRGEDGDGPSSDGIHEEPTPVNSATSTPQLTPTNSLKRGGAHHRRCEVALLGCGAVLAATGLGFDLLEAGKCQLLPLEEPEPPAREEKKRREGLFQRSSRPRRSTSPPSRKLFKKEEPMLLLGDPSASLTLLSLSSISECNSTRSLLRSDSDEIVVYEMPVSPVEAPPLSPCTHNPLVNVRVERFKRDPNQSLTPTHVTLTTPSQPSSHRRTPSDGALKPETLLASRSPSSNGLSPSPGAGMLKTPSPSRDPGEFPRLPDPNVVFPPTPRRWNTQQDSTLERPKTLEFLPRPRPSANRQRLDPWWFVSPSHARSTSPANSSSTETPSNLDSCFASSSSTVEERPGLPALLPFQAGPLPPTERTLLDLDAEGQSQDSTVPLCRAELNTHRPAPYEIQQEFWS
For assay [8], the target named is T2, Ephrin type-A receptor 6 (Homo sapiens) (UniProt Q9UF33).
T2 sequence (whole entry): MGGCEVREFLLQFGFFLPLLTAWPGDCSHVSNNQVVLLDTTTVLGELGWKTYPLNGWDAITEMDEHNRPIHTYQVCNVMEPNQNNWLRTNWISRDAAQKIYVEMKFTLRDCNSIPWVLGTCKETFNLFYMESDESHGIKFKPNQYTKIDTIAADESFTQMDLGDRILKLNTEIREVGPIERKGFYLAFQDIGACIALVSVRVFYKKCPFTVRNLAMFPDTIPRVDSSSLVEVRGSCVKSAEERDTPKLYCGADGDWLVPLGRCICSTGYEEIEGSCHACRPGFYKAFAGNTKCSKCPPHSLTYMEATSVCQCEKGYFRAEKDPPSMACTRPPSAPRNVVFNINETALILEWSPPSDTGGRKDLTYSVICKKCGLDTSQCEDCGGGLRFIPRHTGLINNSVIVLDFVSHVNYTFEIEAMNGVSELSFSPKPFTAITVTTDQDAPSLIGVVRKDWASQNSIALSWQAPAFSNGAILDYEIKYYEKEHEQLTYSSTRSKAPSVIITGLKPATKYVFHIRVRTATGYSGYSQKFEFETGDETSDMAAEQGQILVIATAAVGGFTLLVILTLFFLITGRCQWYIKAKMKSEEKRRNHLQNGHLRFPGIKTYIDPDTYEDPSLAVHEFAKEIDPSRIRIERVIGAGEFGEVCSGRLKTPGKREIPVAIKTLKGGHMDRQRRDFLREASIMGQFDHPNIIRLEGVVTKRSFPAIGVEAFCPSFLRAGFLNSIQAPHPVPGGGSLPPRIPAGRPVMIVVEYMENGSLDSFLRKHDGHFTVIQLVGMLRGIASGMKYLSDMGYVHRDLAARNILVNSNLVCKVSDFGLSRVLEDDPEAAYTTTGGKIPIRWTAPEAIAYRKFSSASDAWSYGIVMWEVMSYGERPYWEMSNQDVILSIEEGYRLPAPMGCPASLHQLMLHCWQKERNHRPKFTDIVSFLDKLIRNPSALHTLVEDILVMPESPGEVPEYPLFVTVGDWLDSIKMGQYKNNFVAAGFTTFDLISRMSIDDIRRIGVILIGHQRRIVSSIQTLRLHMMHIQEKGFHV
In words: Selectivity interaction (KinomeScan (DiscoverX)) EUB0001619a EPHA6. Conditions: at 1 µM.

The target in assay [9] is Rho-associated protein kinase 1 (Homo sapiens) (UniProt Q13464). In words: Selectivity interaction (ActivX KiNativ screen (ex vivo kinase selectivity in human PBMCs)) EUB0001619a ROCK1. In kind it is cell-based. The note with it: PBMC, at 1 µM.

Chain of Mitogen-activated protein kinase kinase kinase 21 (Homo sapiens) (Q5TCX8 whole entry): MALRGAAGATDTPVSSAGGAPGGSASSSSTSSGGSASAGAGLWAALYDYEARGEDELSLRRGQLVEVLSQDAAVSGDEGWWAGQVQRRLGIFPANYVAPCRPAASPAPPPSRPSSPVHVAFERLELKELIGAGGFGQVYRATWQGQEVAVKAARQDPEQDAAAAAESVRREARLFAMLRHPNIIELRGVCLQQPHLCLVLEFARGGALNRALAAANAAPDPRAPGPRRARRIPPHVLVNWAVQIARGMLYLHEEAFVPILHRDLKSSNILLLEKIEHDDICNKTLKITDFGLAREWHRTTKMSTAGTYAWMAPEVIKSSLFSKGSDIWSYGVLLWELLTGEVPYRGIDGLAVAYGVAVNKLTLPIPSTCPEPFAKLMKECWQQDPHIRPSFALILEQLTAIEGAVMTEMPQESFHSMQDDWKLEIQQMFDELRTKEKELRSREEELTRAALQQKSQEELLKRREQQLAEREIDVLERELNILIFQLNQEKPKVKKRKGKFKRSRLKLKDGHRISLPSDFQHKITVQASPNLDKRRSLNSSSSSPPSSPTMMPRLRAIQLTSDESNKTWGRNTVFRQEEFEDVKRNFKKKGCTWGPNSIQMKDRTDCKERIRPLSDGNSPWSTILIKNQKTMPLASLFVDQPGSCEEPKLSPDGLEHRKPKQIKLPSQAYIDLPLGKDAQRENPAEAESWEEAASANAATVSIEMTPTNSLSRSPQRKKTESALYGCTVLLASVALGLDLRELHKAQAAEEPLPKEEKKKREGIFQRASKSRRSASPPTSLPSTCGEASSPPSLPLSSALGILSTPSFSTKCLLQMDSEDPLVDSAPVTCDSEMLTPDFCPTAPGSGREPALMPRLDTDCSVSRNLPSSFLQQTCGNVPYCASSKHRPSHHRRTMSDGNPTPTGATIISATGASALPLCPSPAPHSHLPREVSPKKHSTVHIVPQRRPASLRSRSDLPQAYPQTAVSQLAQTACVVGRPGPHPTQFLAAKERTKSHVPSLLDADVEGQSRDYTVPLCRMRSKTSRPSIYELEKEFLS
Chain of STE20-like serine/threonine-protein kinase (Q9H2G2 whole entry, looked up): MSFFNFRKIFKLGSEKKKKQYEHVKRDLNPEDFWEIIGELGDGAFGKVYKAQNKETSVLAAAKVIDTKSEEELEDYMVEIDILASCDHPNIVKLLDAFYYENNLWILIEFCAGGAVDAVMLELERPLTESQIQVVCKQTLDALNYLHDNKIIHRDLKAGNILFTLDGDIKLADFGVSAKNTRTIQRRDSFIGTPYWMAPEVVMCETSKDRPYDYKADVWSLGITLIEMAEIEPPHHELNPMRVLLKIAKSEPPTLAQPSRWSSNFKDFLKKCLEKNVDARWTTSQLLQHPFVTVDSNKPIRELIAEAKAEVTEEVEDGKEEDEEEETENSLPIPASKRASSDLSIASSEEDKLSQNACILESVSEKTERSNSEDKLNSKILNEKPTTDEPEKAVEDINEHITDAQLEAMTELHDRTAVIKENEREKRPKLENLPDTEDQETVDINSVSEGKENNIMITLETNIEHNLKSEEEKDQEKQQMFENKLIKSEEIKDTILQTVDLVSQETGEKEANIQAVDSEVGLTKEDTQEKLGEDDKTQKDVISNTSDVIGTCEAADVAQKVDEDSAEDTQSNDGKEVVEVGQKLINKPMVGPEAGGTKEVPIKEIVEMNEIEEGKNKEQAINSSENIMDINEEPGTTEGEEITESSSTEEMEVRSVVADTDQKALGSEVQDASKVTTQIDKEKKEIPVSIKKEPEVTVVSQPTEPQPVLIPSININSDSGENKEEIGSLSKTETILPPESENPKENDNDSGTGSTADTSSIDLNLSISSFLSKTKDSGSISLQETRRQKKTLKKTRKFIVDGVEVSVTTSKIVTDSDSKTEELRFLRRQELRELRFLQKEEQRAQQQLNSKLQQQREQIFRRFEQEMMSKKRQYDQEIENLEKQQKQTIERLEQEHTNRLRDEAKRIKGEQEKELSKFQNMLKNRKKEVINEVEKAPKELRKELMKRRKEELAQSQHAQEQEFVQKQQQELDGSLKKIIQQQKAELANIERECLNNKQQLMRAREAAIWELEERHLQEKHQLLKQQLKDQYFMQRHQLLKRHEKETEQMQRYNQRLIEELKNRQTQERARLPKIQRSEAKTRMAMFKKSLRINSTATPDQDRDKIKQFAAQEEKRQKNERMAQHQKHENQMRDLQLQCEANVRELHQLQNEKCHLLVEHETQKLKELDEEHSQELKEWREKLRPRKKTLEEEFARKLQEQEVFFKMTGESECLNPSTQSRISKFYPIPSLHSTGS
Chain of Proto-oncogene tyrosine-protein kinase Src (P12931 2-536 limits assumed): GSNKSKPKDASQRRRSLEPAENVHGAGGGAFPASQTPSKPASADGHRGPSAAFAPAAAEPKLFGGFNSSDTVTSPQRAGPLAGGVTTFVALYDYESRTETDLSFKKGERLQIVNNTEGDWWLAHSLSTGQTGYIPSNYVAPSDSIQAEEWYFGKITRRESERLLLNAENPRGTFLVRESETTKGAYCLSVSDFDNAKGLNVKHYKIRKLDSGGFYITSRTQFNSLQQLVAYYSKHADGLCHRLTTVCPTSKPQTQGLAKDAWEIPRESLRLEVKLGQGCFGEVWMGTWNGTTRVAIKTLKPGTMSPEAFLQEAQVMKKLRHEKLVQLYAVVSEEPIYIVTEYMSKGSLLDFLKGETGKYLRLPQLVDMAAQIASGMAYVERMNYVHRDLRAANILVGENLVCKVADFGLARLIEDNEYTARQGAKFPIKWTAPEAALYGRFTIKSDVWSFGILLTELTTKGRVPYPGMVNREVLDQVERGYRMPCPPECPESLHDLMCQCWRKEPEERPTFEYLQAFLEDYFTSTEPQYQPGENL
Chain of Muscarinic acetylcholine receptor M4 (Homo sapiens) (P08173 whole entry): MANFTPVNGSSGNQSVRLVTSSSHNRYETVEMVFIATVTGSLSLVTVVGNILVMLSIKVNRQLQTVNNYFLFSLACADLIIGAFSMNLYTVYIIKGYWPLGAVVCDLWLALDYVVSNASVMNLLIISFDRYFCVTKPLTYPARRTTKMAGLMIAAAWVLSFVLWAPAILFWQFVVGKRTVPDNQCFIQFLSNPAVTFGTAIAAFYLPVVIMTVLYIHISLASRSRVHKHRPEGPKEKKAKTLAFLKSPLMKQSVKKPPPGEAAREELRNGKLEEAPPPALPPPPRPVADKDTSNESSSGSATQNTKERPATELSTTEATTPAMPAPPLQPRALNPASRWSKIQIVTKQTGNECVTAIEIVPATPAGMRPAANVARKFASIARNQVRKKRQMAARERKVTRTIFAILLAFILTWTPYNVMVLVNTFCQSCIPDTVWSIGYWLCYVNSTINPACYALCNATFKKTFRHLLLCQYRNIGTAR

On to `Nc1cnc(N2CCc3cc(S(=O)(=O)Nc4c(F)cc(Cl)cc4F)cc(N4CCCC4=O)c32)nc1` [TP-020n], for which the % of inhibition in [1] is 9.99%.
In assay [2], `COc1cc(Nc2nc(C)cc(-c3cnn4nc(OC)ccc34)n2)cc(C(F)(F)F)c1` gave a % of control of 88%.
For `CN(C)CCOc1ccc(-c2nc(-c3ccncc3)c(-c3ccc4c(c3)CC/C4=N\O)[nH]2)cc1`, the % of control in [3] was 86%.
On to `Cc1cc(F)c(C(=O)Nc2cccc(-c3nncn3C(C)C)n2)cc1-n1cnc(C2CC2)c1`, for which the % of control in assay [4] came to 100%.
As to `CC[C@@H]1[C@H](F)C(=O)N[C@@H]1COc1nccc2cc(C(N)=O)c(OC)cc12` [ZIMLOVISERTIB], the % of inhibition in [5] is -15.6%; in assay [6] (at 0.01 µM), 7.8%; in assay [6] (at 0.04 µM) it was 2%; in assay [6] (at 0.2 µM), 4.6%; in assay [6] (at 1 µM) it was 14%; in [6] (at 5 µM), 17%.
`COc1cc(N(C)c2ccnc3ccc(C(F)(F)F)cc23)cc(OC)c1OC` gave a % binding in assay [7] of 88%.
`N#Cc1cccc(-c2c[nH]c3ncnc(N4CCOCC4)c23)c1`: the % of control in assay [8] worked out at 100%. For the same compound, the % of inhibition in [9] was -3%.

(Values after ChEMBL document CHEMBL5465560, “Selectivity Literature for EUbOPEN Chemogenomic Library” (2024).)
